Experiments:
[1] = target: T1, rat metabotropic glutamate receptor 5 (mGluR5) (Rattus norvegicus, UniProt P31424); assay: Calcium mobilization assay (FLIPR) for negative or positive allosteric activity, HEK 293 cells; type: cell-based; conditions: HEK293, negative allosteric modulation, inhibition of EC80 glutamate response; read-out: FLIPR maximum inhibition
T1 construct: expressed in transfected cells; host or cells: HEK 293
How it was run: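 Peak Fluo-4 calcium signal over 3 min at room temperature, minus basal, fitted by Hill equation, in stable rat mGluR5 HEK 293 cells (HBSS/HEPES pH 7.4, BSA, probenecid). Inhibition scored against EC80 glutamate, potentiation against EC20 glutamate, glutamate given with compound.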

mGluR5 = mGluR5 (Homo sapiens, UniProt P41594); assay: Radioligand binding assay, [3H]MPEP filtration binding to membrane homogenates; conditions: 5 nM [3H]MPEP; Ki calculated from IC50 by Cheng-Prusoff
Protocol: Binding assays were performed as described in [J. A. O'Brien et al. Mol. Pharmacol., 2003, 64, 731-740] with slight modifications. Briefly, after thawing, the membrane homogenates were resuspended in 50 mM Tris-HCl, 0.9% NaCl binding buffer at pH 7.4 to a final assay concentration of 40 μg protein/well for [^3H]methoxy-5-(2-pyridinylethynyl)pyridine ([^3H] MPEP) (American Radiolabeled Chemicals, Inc., St. Louis, Mo.) filtration binding. Incubations included 5 nM [^3H] MPEP, membranes and either buffer or varying concentrations of compound. Samples were incubated for 60 min at room temperature with shaking. Non-specific binding was defined with 10 μM MPEP. After incubation, samples were filtered over a GF/C filter (presoaked in 0.25% polyethyleneimine (PEI)) and then washed 4 times using a Tomtec® Harvester 96® Mach III cell harvester (Tomtec, Hamden, Conn.) with 0.5 mL ice-cold 50 mM Tris-HCl (pH 7.4).
IC50 values were derived from the inhibition curve and Ki values were calculated according to the Cheng and Prusoff equation of Ki=IC50/(1+[L]/Kd) described in [Y. Cheng and W. H. Prusoff Biochem. Pharmacol. 1973, 22, 3099-3108] where [L] is the concentration of radioligand and Kd is its dissociation constant at the receptor, derived from the saturation isotherm.

adult, male CD1 mice = assay: Mouse marble burying (mMB) assay, anxiolytic effect; type: in vivo; conditions: SC injection, one-way ANOVA with Dunnett's test or t-test, read-out: Statistically significant Active Dose
Protocol: Examples 1, 2 and 58 were evaluated in vivo for anxiolytic effects using (1) mouse marble burying (mMB) methods similar to those described in [K. Njung'e, K. and S. L. Handley, Pharmacology, Biochemistry and Behavior, 1991, 38, 63-67] and (2) a modified Geller-Seifter conflict test described in [N. A. Moore et al. Behavioural Pharmacology. 1994, 5, 196-202].
More specifically for the mMB testing, adult, male CD1 mice (Charles River Laboratories (Kingston, N.Y.)), weighing 25 to 30 g, were used. All animals were group-housed in a standard colony room with a 12:12 light/dark cycle (lights on at 6:00 am) for at least one week prior to testing. Food and water were provided ad libitum. Animals were weighed, tail marked, and randomly assigned to treatment groups before testing.
For each test, sixty minutes after the injection of vehicle or test compound, or 30 min after injection of the positive control, buspirone, mice were individually placed into test cages containing 1.5 in of Aspen bedding (PWI brand) and two rows of 10 marbles (20 marbles per test cage total). Filter tops were used to cover each test cage. Thirty minutes later, mice were removed from test cages and returned to their home cages. The number of fully visible marbles (less than ⅔ covered with bedding) were counted and subtracted from 20 to arrive at the number of marbles buried. Twelve mice were tested per group.
Testing included multiple tests with each test performed to evaluate buspirone hydrochloride (BUS; Sigma Aldrich) (positive control) and/or a compound of the present invention. Each compound was dissolved immediately prior to testing in 20% beta-cyclodextrin (compound of the present invention) or distilled water (BUS) and administered at one or more doses (such as 3, 10, and/or 30 mg/kg) via subcutaneous (SC) or intraperitoneal (IP) injection at the indicated pretreatment times (i.e., 30, 60, or 120 min pretreatment). Doses were measured in mg drug (salt form) per kg body weight. Data was analyzed using one-way ANOVA with post-hoc Dunnett's test.

Chain of mGluR5 (P41594 21-1212): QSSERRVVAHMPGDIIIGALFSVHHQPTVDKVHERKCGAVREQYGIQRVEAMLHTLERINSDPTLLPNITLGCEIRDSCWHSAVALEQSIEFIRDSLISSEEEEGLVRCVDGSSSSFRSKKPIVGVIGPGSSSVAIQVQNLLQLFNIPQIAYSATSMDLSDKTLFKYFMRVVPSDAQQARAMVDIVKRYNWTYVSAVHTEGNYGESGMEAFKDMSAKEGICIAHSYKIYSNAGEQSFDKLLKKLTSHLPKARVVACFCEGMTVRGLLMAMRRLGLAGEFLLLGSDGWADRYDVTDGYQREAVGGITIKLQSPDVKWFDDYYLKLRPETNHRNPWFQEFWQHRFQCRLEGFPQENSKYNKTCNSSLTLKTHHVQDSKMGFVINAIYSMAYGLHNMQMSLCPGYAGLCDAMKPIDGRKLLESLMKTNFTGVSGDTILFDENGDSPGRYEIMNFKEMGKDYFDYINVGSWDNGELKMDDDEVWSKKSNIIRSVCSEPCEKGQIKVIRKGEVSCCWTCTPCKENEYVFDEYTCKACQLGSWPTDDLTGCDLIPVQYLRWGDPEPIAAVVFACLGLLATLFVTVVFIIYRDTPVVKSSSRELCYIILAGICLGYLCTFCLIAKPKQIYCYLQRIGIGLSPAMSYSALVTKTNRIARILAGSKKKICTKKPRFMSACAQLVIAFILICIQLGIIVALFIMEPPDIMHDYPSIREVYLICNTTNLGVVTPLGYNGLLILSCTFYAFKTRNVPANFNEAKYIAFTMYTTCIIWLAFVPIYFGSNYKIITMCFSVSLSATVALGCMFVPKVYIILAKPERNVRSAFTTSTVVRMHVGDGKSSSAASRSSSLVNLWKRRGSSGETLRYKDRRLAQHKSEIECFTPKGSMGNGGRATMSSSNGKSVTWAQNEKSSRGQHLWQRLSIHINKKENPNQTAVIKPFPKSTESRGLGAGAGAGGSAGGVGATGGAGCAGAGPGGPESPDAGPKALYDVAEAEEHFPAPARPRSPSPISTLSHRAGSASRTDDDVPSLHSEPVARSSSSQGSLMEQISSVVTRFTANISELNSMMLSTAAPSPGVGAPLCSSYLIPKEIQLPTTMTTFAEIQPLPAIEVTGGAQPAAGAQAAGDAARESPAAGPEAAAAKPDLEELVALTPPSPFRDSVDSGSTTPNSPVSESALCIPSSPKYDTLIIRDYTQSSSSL
T1 sequence (P31424 21-1171 isoform P31424-2 limits assumed): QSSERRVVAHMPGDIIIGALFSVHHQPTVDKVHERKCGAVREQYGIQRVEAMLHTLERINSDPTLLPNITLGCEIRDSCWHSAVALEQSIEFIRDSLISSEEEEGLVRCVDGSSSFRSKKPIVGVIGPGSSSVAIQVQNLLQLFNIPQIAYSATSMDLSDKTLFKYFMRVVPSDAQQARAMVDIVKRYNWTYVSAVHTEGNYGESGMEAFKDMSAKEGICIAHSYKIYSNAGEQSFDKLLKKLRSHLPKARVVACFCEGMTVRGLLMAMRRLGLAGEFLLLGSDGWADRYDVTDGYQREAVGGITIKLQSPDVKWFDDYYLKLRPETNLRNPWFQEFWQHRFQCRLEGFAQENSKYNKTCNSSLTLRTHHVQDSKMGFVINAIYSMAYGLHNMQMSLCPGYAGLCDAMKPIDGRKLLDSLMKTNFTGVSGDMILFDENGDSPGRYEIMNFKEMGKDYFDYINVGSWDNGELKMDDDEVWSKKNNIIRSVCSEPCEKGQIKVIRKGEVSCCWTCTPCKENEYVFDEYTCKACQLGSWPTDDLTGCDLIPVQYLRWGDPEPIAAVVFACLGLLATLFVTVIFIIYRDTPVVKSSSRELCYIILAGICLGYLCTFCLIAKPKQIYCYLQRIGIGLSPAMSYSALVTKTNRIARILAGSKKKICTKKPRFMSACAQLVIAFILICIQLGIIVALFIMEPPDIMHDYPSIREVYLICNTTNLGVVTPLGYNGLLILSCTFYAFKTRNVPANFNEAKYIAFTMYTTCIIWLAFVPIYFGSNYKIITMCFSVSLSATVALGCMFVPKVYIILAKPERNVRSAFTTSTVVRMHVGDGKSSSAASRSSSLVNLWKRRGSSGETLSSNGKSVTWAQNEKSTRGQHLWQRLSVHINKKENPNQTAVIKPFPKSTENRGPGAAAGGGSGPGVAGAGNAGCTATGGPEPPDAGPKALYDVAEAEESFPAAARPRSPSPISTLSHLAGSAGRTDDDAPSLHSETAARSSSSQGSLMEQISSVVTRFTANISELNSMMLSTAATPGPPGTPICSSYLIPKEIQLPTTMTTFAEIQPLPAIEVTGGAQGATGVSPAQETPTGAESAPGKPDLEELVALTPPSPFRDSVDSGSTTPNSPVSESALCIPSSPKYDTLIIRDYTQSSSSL

Cn1ccc(C(=O)NC23CC4CC(C2)CC(NC(=O)c2nccs2)(C4)C3)n1 [Example 19, Thiazole-2-carboxylic acid {3-[(1-methyl-1H-pyrazole-3-carbonyl)-amino]-adamantan-1-yl}-amide]
Emax [1]: 63 to 99%
Ki (mGluR5): 6 to 700 nM

Cc1cccc(C(=O)NC23CC4CC(CC(NC(=O)c5cccc(-c6ncccn6)c5)(C4)C2)C3)n1 [Example 44, 6-Methyl-pyridine-2-carboxylic acid [3-(3-pyrimidin-2-yl-benzoylamino)-adamantan-1-yl]-amide]
Emax [1]: 63 to 99%
Ki (mGluR5): 6 to 700 nM

Cc1cnc(C(=O)NC23CC4CC(CC(NC(=O)c5ccccn5)(C4)C2)C3)cn1 [Example 63, 5-Methyl-pyrazine-2-carboxylic acid {3-[(pyridine-2-carbonyl)-amino]-adamantan-1-yl}-amide]
Emax [1]: 63 to 99%
minimal effective dose (adult, male CD1 mice): 30 mg/kg

Cc1nc2ccc(C(=O)NC34CC5CC(C3)CC(NC(=O)c3ccccn3)(C5)C4)cc2o1 [Example 65, 2-Methyl-benzoxazole-6-carboxylic acid {3-[(pyridine-2-carbonyl)-amino]-adamantan-1-yl}-amide]
Emax [1]: 63 to 99%
Ki (mGluR5): 6 to 700 nM

O=C(NC12CC3CC(C1)CC(NC(=O)c1ccccn1)(C3)C2)c1ccc2c(c1)CCN2 [Example 67, 2,3-Dihydro-1H-indole-5-carboxylic acid {3-[(pyridine-2-carbonyl)-amino]-adamantan-1-yl}-amide]
Emax [1]: 63 to 99%
Ki (mGluR5): 6 to 700 nM

Cn1ccc2cc(C(=O)NC34CC5CC(C3)CC(NC(=O)c3ccccn3)(C5)C4)ccc21 [Example 69, 1-Methyl-1H-indole-5-carboxylic acid {3-[(pyridine-2-carbonyl)-amino]-adamantan-1-yl}-amide]
Emax [1]: 63 to 99%
Ki (mGluR5): 6 to 700 nM

Cc1cccc(C(=O)NC23CC4CC(CC(NC(=O)c5ccccn5)(C4)C2)C3)n1 [Example 72, 6-Methyl-pyridine-2-carboxylic acid {3-[(pyridine-2-carbonyl)-amino]-adamantan-1-yl}-amide]
Emax [1]: 63 to 99%
Ki (mGluR5): 6 to 700 nM

O=C(NC12CC3CC(C1)CC(NC(=O)c1nccs1)(C3)C2)c1ccccn1 [Example 74, Pyridine-2-carboxylic acid {3-[(thiazole-2-carbonyl)-amino]-adamantan-1-yl}-amide]
Emax [1]: 63 to 99%
Ki (mGluR5): 6 to 700 nM

O=C(NC12CC3CC(C1)CC(NC(=O)c1ccncn1)(C3)C2)c1cccc(F)c1 [Example 93, Pyrimidine-4-carboxylic acid [3-(3-fluoro-benzoylamino)-adamantan-1-yl]-amide]
Emax [1]: 63 to 99%
minimal effective dose (adult, male CD1 mice): 30 mg/kg
Ki (mGluR5): 6 to 700 nM

O=C(NC12CC3CC(C1)CC(NC(=O)c1cnccn1)(C3)C2)c1cccc(F)c1 [Example 95, Pyrazine-2-carboxylic acid [3-(3-fluoro-benzoylamino)-adamantan-1-yl]-amide]
Emax [1]: 63 to 99%
Ki (mGluR5): 6 to 700 nM

Cc1cncc(C(=O)NC23CC4CC(CC(NC(=O)c5cccc(F)c5)(C4)C2)C3)n1 [Example 96, 6-Methyl-pyrazine-2-carboxylic acid [3-(3-fluoro-benzoylamino)-adamantan-1-yl]-amide]
Emax [1]: 63 to 99%
Ki (mGluR5): 6 to 700 nM

O=C(NC12CC3CC(C1)CC(NC(=O)c1cnccn1)(C3)C2)c1ccccn1 [Example 105, Pyrazine-2-carboxylic acid {3-[(pyridine-2-carbonyl)-amino]-adamantan-1-yl}-amide]
Emax [1]: 70 to 99%
minimal effective dose (adult, male CD1 mice): 30 mg/kg
Ki (mGluR5): 6 to 700 nM

Cc1nccc(C(=O)NC23CC4CC(CC(NC(=O)c5ccccn5)(C4)C2)C3)n1 [Example 107, 2-Methyl-pyrimidine-4-carboxylic acid {3-[(pyridine-2-carbonyl)-amino]-adamantan-1-yl}-amide]
Emax [1]: 70 to 99%
minimal effective dose (adult, male CD1 mice): 10 mg/kg
Ki (mGluR5): 6 to 700 nM

Cc1cccc(C(=O)NC23CC4CC(C2)CC(NC(=O)c2ccnc(C)n2)(C4)C3)n1 [Example 119, 2-Methyl-pyrimidine-4-carboxylic acid {3-[(6-methyl-pyridine-2-carbonyl)-amino]-adamantan-1-yl}-amide]
Emax [1]: 70 to 99%
minimal effective dose (adult, male CD1 mice): 10 mg/kg
Ki (mGluR5): 6 to 700 nM

Cc1cccc(C(=O)NC23CC4CC(CC(NC(=O)c5cscn5)(C4)C2)C3)n1 [Example 120, 6-Methyl-pyridine-2-carboxylic acid {3-[(thiazole-4-carbonyl)-amino]-adamantan-1-yl}-amide]
Emax [1]: 70 to 99%
Ki (mGluR5): 6 to 700 nM

Cc1cncc(C(=O)NC23CC4CC(C2)CC(NC(=O)c2cncc(C)n2)(C4)C3)n1 [Example 145, N,N′-(1,3-adamantylene)bis(6-methyl-pyrazine-2-carboxamide)]
Emax [1]: 70 to 99%
minimal effective dose (adult, male CD1 mice): 30 mg/kg

Cc1cncc(C(=O)NC23CC4CC(CC(NC(=O)c5ccc(F)cn5)(C4)C2)C3)n1 [Example 179, 6-Methyl-pyrazine-2-carboxylic acid {3-[(5-fluoro-pyridine-2-carbonyl)-amino]-adamantan-1-yl}-amide]
minimal effective dose (adult, male CD1 mice): 10 mg/kg

Cc1nccc(C(=O)NC23CC4CC(CC(NC(=O)c5cccc(F)c5)(C4)C2)C3)n1 [Example 183, 2-Methyl-pyrimidine-4-carboxylic acid [3-(3-fluoro-benzoylamino)-adamantan-1-yl]-amide]
minimal effective dose (adult, male CD1 mice): 10 mg/kg

O=C(NC12CC3CC(C1)CC(NC(=O)c1cnccn1)(C3)C2)c1ccc(F)cn1 [Example 185, Pyrazine-2-carboxylic acid {3-[(5-fluoro-pyridine-2-carbonyl)-amino]-adamantan-1-yl}-amide]
Emax [1]: 63 to 99%
minimal effective dose (adult, male CD1 mice): 30 mg/kg

Reference: patent publication US8716284B2, “Adamantyl diamide derivatives and uses of same” (H. Lundbeck A/S, priority 2008, dated 2014)
